According to patent publication US9469854B2, “Pharmaceutical composition for treating liver diseases” (Academia Sinica, priority 2014, dated 2016):

What was measured:
SPEBF2 = assay: qRT-PCR mRNA expression in primary human hepatocytes; type: cell-based; details: PHH, 40 μM berberine, 4-8 h
Protocol: The primary human hepatocytes from Caucasian donors were purchased from Invitrogen and cultured following the manufacturer's instructions. The hepatocytes were thawed and transferred into cryopreserved hepatocytes recovery medium (CM7000, Invitrogen), centrifuging at room temperature, 100×g for 10 min. Then, the hepatocytes were diluted to seeding density with plating medium (CM3000, Invitrogen) and added into collagen I-coated plates (Invitrogen). These plates were incubated at 37° C. for 4-6 hours under 5% CO2 for forming a monolayer. Then, plating medium was replaced by overlay incubation medium (CM4000 and 0.35 mg/mL Geltrex™ Matrix, Invitrogen), and the incubation medium was replaced daily. In the following examples, hepatocytes form 3 to 4 donors were used for experiments.
A 50 mM stock solution of berberine chloride (Sigma-Aldrich) was prepared in dimethyl sulfoxide (DMSO). Cells were treated with 40 μM of berberine chloride or 0.08% DMSO as the control. For induction of lipid droplets formation in cultured cells, 200 μM of oleic acid (Sigma-Aldrich) was added into the culture medium for 24 h.
Total RNA was extracted using a TRIZOL reagent (Invitrogen) according to the manufacturer's protocol. The total RNA quantity was measured using a NanoDrop ND-1000 spectrophotometer (Nanodrop Technologies). […]

hsa-miR-21-3p = assay: miRNA microarray profiling of berberine-treated HepG2 cells; type: cell-based, human; details: HepG2, 40 μM berberine, 2 h and 4 h vs control cells
Protocol: Total RNA was extracted using a TRIZOL reagent (Invitrogen) according to the manufacturer's protocol. The total RNA quantity was measured using a NanoDrop ND-1000 spectrophotometer (Nanodrop Technologies). The total RNA quality and integrity were assayed using an Agilent 2100 bioanalyzer with an RNA 6000 nano kit (Agilent Technologies).
The miRNA profiling was performed using an Agilent human miRNA Microarray R14 V2 containing 866 human miRNAs. […] Microarrays were scanned following the Agilent microarray scanner protocol, and image analysis and quantification were performed using the Agilent Feature Extraction software (Agilent Technologies). […]

DGAT2 = assay: Western blot protein expression in HepG2 cells; type: cell-based, human; details: HepG2, miR-21-3p over-expressed, 72 h
Protocol: (§1) The human HepG2 cells and HEK 293T cells used in the following examples were originally obtained from the American Tissue Culture Collection (ATCC, USA). The human HCC HepG2 cell line was cultured in Minimum Essential Medium Eagle (Sigma) supplemented with 10% fetal bovine serum (FBS) (Invitrogen), 2.2 g/L of sodium bicarbonate (Sigma), 0.1 mM of non-essential amino acids (Caisson), 1 mM of sodium pyruvate (Invitrogen), and 10 of ml/L penicillin-streptomycin-amphotericin solution (Biological Industries). Human HEK-293T cells were maintained in high-glucose Dulbecco's modified eagle medium (Invitrogen) supplemented with 10% FBS and 3.7 g/L of sodium bicarbonate (Sigma). Both cell lines were cultured at 37° C. and 5% CO2.
(§2) The HepG2 cells were transfected at a density of 5×10^4 cells per well in a 24-well culture plates with either 50 nM of hsa-miR-21-3p (miR-21-3p mimic) or negative-control mimic (NC mimic), or with either 100 nM of hsa-miR-21-3p inhibitor (miR-21-3p inhibitor) or negative-control inhibitor (NC inhibitor) by using the DharmaFECT 4 transfection reagent (Thermo Scientific Dharmacon) according to the manufacturer's instructions. Cells were incubated for 24 h or 48 h with a microRNA mimic or inhibitor prior to RNA purification for gene expression analysis, and were incubated for 72 h for protein expression analysis.
(§3) Total cell lysates were prepared using a lysis buffer (7 M of urea, 4% CHAPS, 2 M of thiourea, 40 mM of Tris, 65 mM of dithioerythritol). Protein samples were separated using 12.5% SDS-PAGE and then transferred to PVDF membranes. The following primary antibodies were used: rabbit polyclone anti-MAT1A (1:800, GeneTex), anti-MAT2A (1:1000, GeneTex), anti-MAT2B (1:1000, GeneTex), anti-ACACB (1:1000, Sigma), anti-DGAT2 (1:1000, GeneTex) and anti-GAPDH (1:3000, GeneTex) and mouse monoclone anti-ACACA (1:1000, Millipore). The goat polyclonal anti-rabbit or anti-mouse IgG antibody conjugated with HRP (1:5000, abcam) was used as the secondary antibody. The bands were imaged using the LAS-4000 mini luminescent image analyzer (Fujifilm). The quantification of western blot analysis was achieved by using Image J software. The protein expression levels were normalized to the GAPDH levels.

MAT2A = assay: Western blot protein expression in HepG2 cells; type: cell-based, human; details: HepG2, mimic transfection 72 h
Protocol: as §1, §2, §3

MAT1A = assay: Western blot protein expression in HepG2 cells; type: cell-based, human; details: HepG2, mimic transfection 72 h
Protocol: as §1, §2, §3

MAT2B = assay: Western blot protein expression in HepG2 cells; type: cell-based, human; details: HepG2, mimic transfection 72 h
Protocol: as §1, §2, §3

ACACB = assay: Western blot protein expression in HepG2 cells; type: cell-based, human; details: HepG2, mimic transfection, 72 h
Protocol: as §1, §2, §3

ACACA = assay: Western blot protein expression in HepG2 cells; type: cell-based, human; details: HepG2, mimic transfection, 72 h
Protocol: as §1, §2, §3

3′ UTR sequence of DGAT2 = assay: Reporter examination of miR-21-3p and DGAT2 3′ UTR (technology similar to Example 6); type: cell-based, human
Protocol: (§4) The HEK-293T and HepG2 cells were seeded at a density of 5×10^4 cells per well in a 24-well culture plate the day before transfection. The HEK-293T and HepG2 cells were tri-transfected with (1) any one of the above-mentioned pMIR-REPORT-3′ UTR construction (300 ng), (2) the control Renilla luciferase reporter plasmid pRL-TK from Promega (10 ng), and (3) 50 nM of hsa-miR-21-3p mimic or negative-control mimic by using the Lipofectamine 2000 transfection reagent (Invitrogen) according to the manufacturer's instructions. Luciferase assays were performed after transfection for 48 h by using the Dual Luciferase reporter assay kit (Promega) and the Paradigm detection platform (Beckman) according to the manufacturer's protocol. The firefly luciferase activity was normalized relative to the Renilla luciferase activity.

[1] = tested on: intracellular malonyl-CoA; assay: Measurement of intracellular malonyl-CoA concentration in HepG2 cells; type: cell-based, human; details: HepG2, 72-h mimic transfection
Protocol: After transfection with 50 nM of miR-21-3p mimic or the negative-control mimic for 72 h, the PHH cells and HepG2 cells were trypsinized. The intracellular malonyl-CoA concentration was measured using the malonyl-CoA ELISA Kit (MyBioSource) according to the manufacturer's instructions.

3′ UTR of ACACA = assay: Reporter examination of miR-21-3p and ACACA 3′ UTR (technology similar to Example 6); type: cell-based, human; details: data not shown
Protocol: as §4

COc1ccc2cc3[n+](cc2c1OC)CCc1cc2c(cc1-3)OCO2 [berberine]
mRNA expression of SPEBF2 (SPEBF2): decreases
hsa-miR-21-3p expression increase (miRNA microarray) (hsa-miR-21-3p): 4 fold

hsa-miR-21-3p (CAACACCAGUCGAUGGGCUGU; listed as RNA, chemistry not given here) [miR-21-3p mimic]
decrease in protein level of DGAT2 (DGAT2): 3.3 fold
MAT2A protein expression decrease (MAT2A): 2.6 fold
MAT1A protein expression increase (MAT1A): 1.7 fold
MAT2B protein expression decrease (MAT2B): 3.4 fold
decrease in protein expression of ACACB (ACACB): 1.6 fold
decrease in protein expression of ACACA (ACACA): 2.3 fold
suppression of DGAT2 expression by pairing with 3′ UTR (3′ UTR sequence of DGAT2): 1.4 fold
intracellular malonyl-CoA concentration decrease [1]: 1.6 fold
suppression of ACACA expression via 3′ UTR (3′ UTR of ACACA): suppressed the expression of ACACA, but not though its 3′ UTR sequence
